# Source: PMC10504053, “First-in-Human PET Imaging of [^18F]SDM-4MP3: A Cautionary Tale” (Molecular Imaging, 2023)
# Experiments:
# SV2A = target: SV2A; design: method as in PMID 34722967, PMID 24446373; settings: affinity to SV2A, in vitro binding; cited from earlier work
# [1] = Arterial plasma radiometabolite analysis (column-switching HPLC) in human participants; type: in vivo; settings: human arterial plasma parent fraction, compared with [18F]SynVesT-1
# Protocol: The arterial line was placed into the radial artery by a qualified respiratory therapist. Up to 160 mL of arterial blood was collected via automated blood sampler (ABSS, Comecer PBS-101) and via manual samples for plasma metabolite correction. The ABSS protocol was started ~15 s after emission scan start, and pump speed was set to 300 mL/h, to reduce dispersion in ABSS lines during maximum rate of change of arterial activity concentration, at 1 s sampling period for 5 min and 2 s sampling period for 136 s. Pump speed was decreased to 180 mL/h at a sampling period of 5 s for the following 360 s and a sampling period of 10 s for 540 s, for a total sampling time of 22 min and 16 s. […]
# Baseline whole blood samples were centrifuged at 3100 RPM at room temperature for 5 min to extract plasma. […] Each subsequent manual sample was centrifuged at 3900 rpm at 4°C for 5 min, and 0.3 mL of whole blood and 0.3 mL of plasma were extracted and measured on a gamma counter (Wizard 2480, Perkin Elmer, Turku, Finland) to quantify activity concentration.
# (1) Column-Switching HPLC. […] Samples were initially analyzed in capture mode with the capture solvent flow rate of 1.8 mL/min for 4 min before switching to analysis mode with the analysis solvent running at 1.8 mL/min for an additional 12 min. […]
# [2] = target: T1, synaptic vesicle protein 2A (SV2A) (Homo sapiens, UniProt Q7L0J3); experiment: Human brain PET imaging (SUV, SUVR, 1-TCM VT with arterial input function); type: in vivo; settings: for VT (SE %) from fitting of 1-TCM: human brain PET; for time of peak brain uptake: P1 ([18F]SDM-4MP3) vs P3 ([18F]SynVesT-1); for SUVR: 60-90 min, centrum semiovale reference
# T1 construct: from tissue; host or cells: brain of living human participants (in vivo PET)
# T1 sequence (Q7L0J3 whole entry): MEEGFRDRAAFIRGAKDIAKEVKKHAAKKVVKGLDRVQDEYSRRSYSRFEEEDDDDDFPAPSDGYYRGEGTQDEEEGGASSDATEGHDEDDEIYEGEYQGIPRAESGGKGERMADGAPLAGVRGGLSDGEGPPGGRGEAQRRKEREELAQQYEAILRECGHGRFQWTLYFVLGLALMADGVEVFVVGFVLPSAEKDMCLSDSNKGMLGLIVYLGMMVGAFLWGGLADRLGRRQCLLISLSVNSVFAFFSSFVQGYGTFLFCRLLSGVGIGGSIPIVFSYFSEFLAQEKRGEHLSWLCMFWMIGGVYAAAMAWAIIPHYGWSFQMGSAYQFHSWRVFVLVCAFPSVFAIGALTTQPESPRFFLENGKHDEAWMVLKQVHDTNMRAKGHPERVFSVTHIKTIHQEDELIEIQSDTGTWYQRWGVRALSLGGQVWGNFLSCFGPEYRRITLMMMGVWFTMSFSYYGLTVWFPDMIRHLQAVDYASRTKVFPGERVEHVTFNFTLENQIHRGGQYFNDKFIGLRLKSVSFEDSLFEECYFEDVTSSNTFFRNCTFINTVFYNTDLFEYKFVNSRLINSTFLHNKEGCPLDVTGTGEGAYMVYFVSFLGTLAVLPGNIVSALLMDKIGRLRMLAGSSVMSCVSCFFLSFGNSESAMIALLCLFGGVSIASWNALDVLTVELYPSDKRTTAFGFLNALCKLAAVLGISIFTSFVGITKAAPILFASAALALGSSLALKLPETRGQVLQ
# Description: All human components of the study were approved according to the Research Ethics Board for Human Subjects at CAMH (CTA 125, REB 075/2019). All participants were recruited from the community and provided written informed consent. Participant inclusion criteria were self-report of good health. Exclusion criteria included any history of neurological or psychiatric disorder; cognitive impairment according to MoCA assessment (score less than 26); pregnancy and/or nursing; and disorders of coagulation, blood, or ongoing use of anticoagulant medication. Each participant's height, weight, current medications, and smoking status was recorded. Participants abstained from taking […] medications, including aspirin [13], for 24 hours prior to the PET exam (see Table 1).
# Participants were scanned on a 5-ring GE Discovery MI PET/CT (GE Healthcare Technologies, Chicago, Illinois). Participants 1 and 2 (P1 and P2) were scanned with [^18F]SDM-4MP3 (the radiopharmaceutical synthesized from the ABX precursor), and [^18F]SynVesT-1 (synthesized from the Yale precursor) was used for PET imaging of participants 3 and 4 (P3 and P4). A thermoplastic facemask (Tru-Scan Imaging, Annapolis) was used to restrict head motion within the PET scanner bore. CT was used to acquire a scout scan, followed by a low-dose scan for attenuation correction. The radiopharmaceutical (target dose 185 MBq ± 10%, molar activity > 11 GBq/μmol) was delivered starting 30 s after the initiation of the emission scan, with a smooth bolus injection by hand (2-5 s) via intravenous line placed in the antecubital vein, followed by a 10 mL saline flush to clear residual activity from the line. Emission data was acquired for 120-125 min, allowing up to 5 min for a background frame sampled at 1 s intervals to determine the precise starting time of brain uptake, and used to establish the duration of the background frame inserted prior to dynamic frame reconstruction. Data acquired after the start of brain uptake was reconstructed into frames using FORE rebinning and filtered back-projection, using a Hanning filter at the Nyquist frequency to create a dynamic image set. Frame definitions were 30 s × 3, 60 s × 3, 120 s × 2, 300 s × 22 (total = 120 min). For use as a reference for motion correction, images were also reconstructed without attenuation correction using an iterative method with 4 subsets and 6 iterations. All reconstructions were performed using vendor algorithms on the GE DMI console. […] A spatial resolution of approximately 5.8 × 5.8 × 5.6 mm was achieved (measured in accordance with National Electrical Manufacturers Association NU 2-2007 standards). The mean injected activity was 192.7 MBq for [^18F]SDM-4MP3 and 184.3 MBq for [^18F]SynVesT-1 (Table 1).
# The arterial line was placed into the radial artery by a qualified respiratory therapist. Up to 160 mL of arterial blood was collected via automated blood sampler (ABSS, Comecer PBS-101) and via manual samples for plasma metabolite correction. The ABSS protocol was started ~15 s after emission scan start, and pump speed was set to 300 mL/h, to reduce dispersion in ABSS lines during maximum rate of change of arterial activity concentration, at 1 s sampling period for 5 min and 2 s sampling period for 136 s. Pump speed was decreased to 180 mL/h at a sampling period of 5 s for the following 360 s and a sampling period of 10 s for 540 s, for a total sampling time of 22 min and 16 s. Manual samples were collected at baseline, 2.5, 7, 12, 15, 20, 30, 45, 60, 90, and 110 min relative to emission scan start into PTFE tubes, followed by a saline flush for all except 2.5- and 7-min samples to avoid discontinuities in arterial data during peak uptake.
# (1) Image Registration and Region of Interest. […]
# [3] = target: T2, synaptic vesicle protein 2A (SV2A) (Rattus norvegicus, UniProt Q02563); experiment: Preclinical PET imaging in rats (whole-brain uptake); type: in vivo, Sprague-Dawley rats; settings: for initial peak uptake in the rodent brain: rat whole-brain time-activity curve
# T2 construct: from tissue; host or cells: brain of living Sprague-Dawley rats (in vivo PET)
# T2 sequence (Q02563 whole entry): as the sequence (Q7L0J3 whole entry) above, with D53E, S62A, T71A, E144D, A154T, G440S, S482A, I572V, M634L counted along it
# Protocol: Preclinical PET imaging studies were approved by the Animal Care Committee at CAMH (Animal Use Protocol #838). Six adult Sprague-Dawley rats were scanned for 120 min on either a Mediso nanoScan PET/MR 3 T or PET/CT scanner (Budapest, Hungary), and the images were analyzed using VivoQuant® software (version 4.1, Invicro LLC, Needham, MA, USA), as described previously. Five rats (3 M/2F, 528 ± 46 g) were used for the baseline [^18F]SynVesT-1 scans (injected dose: 13.3 ± 3.2 MBq; molar activity: 157 ± 64 GBq/μmol; mass injected: 0.22 ± 0.08 nmol/kg), with two of the male rats also scanned after injection of the blocking drug levetiracetam (cat#L1784, LKT Laboratories Inc, St Paul, MN, USA) at 30 mg/kg (i.v., 15 min before the tracer; injected dose: 10.2 ± 0.1 MBq; molar activity: 78 ± 15 GBq/μmol; injected mass: 0.24 ± 0.04 nmol/kg). One female rat (273 g) was used for the 120 min scan with [^18F]SDM-4MP3 (injected dose: 13.0 MBq; molar activity: 125.5 GBq/μmol; injected mass: 0.38 nmol/kg). Acquired list mode data were sorted into thirty-nine 3-dimensional (3D) (3 × 5 s, 3 × 15 s, 3 × 20 s, 7 × 60 s, 17 × 180 s, and 6 × 600 s) true sinograms (ring difference 84) and reconstructed with a 2D filtered back-projection algorithm with corrections for detector geometry, efficiencies, attenuation, and scatter and dead time and were decay-corrected to the start of acquisition. Static images of the complete emission acquisition (0-120 min) were reconstructed with the manufacturer's proprietary iterative 3D algorithm (6 subsets and 4 iterations). SUVs were calculated by normalizing regional radioactivity for injected radioactivity and body weight.
# [4] = human brain time-activity curves
smiles,measurement,setting,value
Cc1ccncc1CN1CC(c2cc(F)cc(F)c2)CC1=O (centres unmarked) [SDM-4MP3],Ki,SV2A,291 nM
Cc1cnccc1CN1C[C@@H](c2cc(F)cc(F)c2)CC1=O [SynVesT-1],Ki,SV2A,3.1 nM
Cc1ccncc1CN1C[C@@H](c2cc(F)cc([18F])c2)CC1=O [[^18F]SDM-4MP3],rate of radiometabolism,[1],slightly slower
same,VT (SE %) from fitting of 1-TCM,"[2]; Centrum semiovale, participant P1",1.6 (1.8%)
same,VT (SE %) from fitting of 1-TCM,"[2]; Centrum semiovale, participant P2",1.7 (2.0%)
same,VT (SE %) from fitting of 1-TCM,"[2]; Cerebellum, participant P1",1.6 (1.4%)
same,VT (SE %) from fitting of 1-TCM,"[2]; Frontal cortex, participant P1",1.8 (1.6%)
same,VT (SE %) from fitting of 1-TCM,"[2]; Frontal cortex, participant P2",1.9 (3.4%)
same,VT (SE %) from fitting of 1-TCM,"[2]; Hippocampus, participant P1",1.8 (1.4%)
same,VT (SE %) from fitting of 1-TCM,"[2]; Hippocampus, participant P2",1.8 (3.4%)
same,VT (SE %) from fitting of 1-TCM,"[2]; Putamen, participant P1",2.0 (1.3%)
same,VT (SE %) from fitting of 1-TCM,"[2]; Putamen, participant P2",2.1 (3.4%)
same,initial brain penetration (SUV),"[2]; human brain time-activity curves, P1",~ 7 SUV
same,clearance from brain,"[2]; human brain time-activity curves, in contrast to [18F]SynVesT-1",rapid clearance from brain
same,time of peak brain uptake,[2]; [4],2.5 min
same,factor by which VT estimates were lower than expected,"[2]; human, one-tissue compartment model, vs expected for [18F]SynVesT-1",> 10
same,SUVR,"[2]; throughout the brain, human",under 2
same,initial peak uptake in the rodent brain,[3]; baseline,3.2 SUV
same,brain uptake in 0-120 min static image,"[3]; rat, barely above tissues outside of the brain",very limited brain uptake
same,whole-brain TAC clearance,"[3]; rat, vs. [18F]SynVesT-1",much faster clearance
same,brain uptake relative to blocked [18F]SynVesT-1 scans,"[3]; rat, comparator scans after levetiracetam 30 mg/kg i.v. 15 min before tracer",lower than [^18F]SynVesT-1 scans performed under preblocking conditions with levetiracetam
"Cc1cnccc1CN1C[C@@H](c2cc(F)cc([18F])c2)CC1=O [[^18F]SynVesT-1, reference compound]",VT (SE %) from fitting of 1-TCM,"[2]; Centrum semiovale, participant P3",2.9 (1.4%)
same,VT (SE %) from fitting of 1-TCM,"[2]; Centrum semiovale, participant P4",3.5 (7.7%)
same,VT (SE %) from fitting of 1-TCM,"[2]; Cerebellum, participant P3",13.1 (0.7%)
same,VT (SE %) from fitting of 1-TCM,"[2]; Cerebellum, participant P4",16.3 (4.9%)
same,VT (SE %) from fitting of 1-TCM,"[2]; Frontal cortex, participant P3",15.4 (0.4%)
same,VT (SE %) from fitting of 1-TCM,"[2]; Frontal cortex, participant P4",18.3 (5.1%)
same,VT (SE %) from fitting of 1-TCM,"[2]; Hippocampus, participant P3",14.9 (0.6%)
same,VT (SE %) from fitting of 1-TCM,"[2]; Hippocampus, participant P4",17.0 (6.2%)
same,VT (SE %) from fitting of 1-TCM,"[2]; Putamen, participant P3",16.1 (0.5%)
same,VT (SE %) from fitting of 1-TCM,"[2]; Putamen, participant P4",22.23 (4.7%)
same,SUVR,"[2]; cortical regions, human",greater than 7
same,time of peak brain uptake,[2]; [4],20 min
same,initial peak uptake in the rodent brain,[3]; baseline,7.6 ± 0.7 SUV
same,brain uptake SUVs in static image,"[3]; rat, 0-120 min static image, baseline",~8 SUV
